Data reported in PMC6271893, “In Vitro Antioxidant and Cytotoxic Activity of Some Synthetic Riparin-Derived Compounds” (Molecules, 2014).
≈ marks a conversion by molar mass, not a printed value. Marks after values point to notes of the source that are not given here.

test system: not listed separately; assay: Scavenging activity of nitric oxide (nitrite production induced by SNP, Griess reaction); settings: 1 μg/mL
Protocol: (§1) For the in vitro antioxidant tests the samples were emulsified in 0.05% Tween 80 dissolved in saline 0.9% (used as the vehicle) and tested at concentrations of 1, 5, 10, 25 and 100 µg/mL. The samples for the cytotoxicity tests were diluted in pure and sterile DMSO and tested at concentrations of 25 µg/mL.
Nitric oxide was generated from spontaneous decomposition of sodium nitroprusside in 20 mM phosphate buffer (pH 7.4). Once generated, NO interacts with oxygen to produce nitrite ions, which are measured by the Griess reaction. The reaction mixture (1 mL) containing 10 mM sodium nitroprusside (SNP) in phosphate buffer and the riparins at various concentrations of 1, 5, 10, 25 and 100 µg/mL were incubated at 37 °C for 1 h. A 0.5 mL aliquot was taken and homogenized with 0.5 mL Griess reagent. The absorbance of chromophore was measured at 540 nm. Percent inhibition of generated nitric oxide was measured by comparing the absorbance values of negative controls (only 10 mM sodium nitroprusside and vehicle) to assay preparations. Results were expressed as percentage of nitrite formed by SNP alone.

| Compound | Nitrite Production (% induced by SNP) |
| --- | --- |
| O=C(NCCc1ccccc1)c1c(O)cccc1O [Rip-E, 2,6-Dihydroxy-N-phenethylbenzamide] | 65.9 ± 1.30 ^a % |

same assay, conditions: 5 μg/mL

| Compound | Nitrite Production (% induced by SNP) |
| --- | --- |
| O=C(NCCc1ccccc1)c1c(O)cccc1O [Rip-E, 2,6-Dihydroxy-N-phenethylbenzamide] | 37.7 ± 0.95 ^a % |

same assay, conditions: 10 μg/mL

| Compound | Nitrite Production (% induced by SNP) |
| --- | --- |
| O=C(NCCc1ccccc1)c1c(O)cccc1O [Rip-E, 2,6-Dihydroxy-N-phenethylbenzamide] | 25.1 ± 1.37 ^a % |

same assay, conditions: 25 μg/mL

| Compound | Nitrite Production (% induced by SNP) |
| --- | --- |
| O=C(NCCc1ccccc1)c1c(O)cccc1O [Rip-E, 2,6-Dihydroxy-N-phenethylbenzamide] | 20.1 ± 0.71 ^a % |

same assay, conditions: 100 μg/mL

| Compound | Nitrite Production (% induced by SNP) |
| --- | --- |
| O=C(NCCc1ccccc1)c1c(O)cccc1O [Rip-E, 2,6-Dihydroxy-N-phenethylbenzamide] | 15.4 ± 1.11 ^a % |

same assay, conditions: 140 μg/mL (standard antioxidant)

| Compound | Nitrite Production (% induced by SNP) |
| --- | --- |
| Cc1c(C)c2c(c(C)c1O)CCC(C)(C(=O)O)O2 (centres unmarked) [Trolox, reference compound] | 40.2 ± 2.80 ^a % |

same assay, conditions: nitrite formation

| Compound | IC50 Nitrite |
| --- | --- |
| O=C(NCCc1ccccc1)c1c(O)cccc1O [Rip-E, 2,6-Dihydroxy-N-phenethylbenzamide] | 0.5224 µg/mL (≈ 2.03 µM) |

test system: not listed separately; assay: Hydroxyl radical scavenging activity (2-deoxyribose degradation, Fenton reaction); settings: 1 μg/mL
Protocol: as §1
The formation of OH radicals from Fenton reagents was quantified using the condensation product of the 2-deoxyribose oxidative degradation product, malonaldehyde, with 2-thiobarbituric acid (TBA). Briefly, typical reactions were started by the addition of Fe^2+ (FeSO4 6 mM final concentration) to solutions containing 5 mM 2-deoxyribose, 100 mM H2O2 and 20 mM phosphate buffer (pH 7.2). In order to determine the antioxidant activity of the riparins against the hydroxyl radical, individual tests were performed on each one of the six substances, in which different concentrations of the riparins were added to the system before Fe^2+ addition (Rip-A; Rip-B; Rip-C; Rip-D; Rip-E and Rip-F). Reactions were carried out for 15 min at room temperature and were quenched by the addition of phosphoric acid 4% (v/v), followed by TBA 1% (thiobarbituric acid, v/v in 50 μL NaOH). The solutions were boiled for 15 min to 95 °C and then cooled at room temperature. The absorbance was measured at 532 nm and the results were expressed as MDA equivalents formed by Fe^2+ and H2O2 [25].

| Compound | 2-Deoxyribose degradation (%) |
| --- | --- |
| O=C(NCCc1ccccc1)c1c(O)cccc1O [Rip-E, 2,6-Dihydroxy-N-phenethylbenzamide] | 79.9 ± 0.64 ^a % |

same assay, conditions: 5 μg/mL

| Compound | 2-Deoxyribose degradation (%) |
| --- | --- |
| O=C(NCCc1ccccc1)c1c(O)cccc1O [Rip-E, 2,6-Dihydroxy-N-phenethylbenzamide] | 62.2 ± 2.14 ^a % |

same assay, conditions: 10 μg/mL

| Compound | 2-Deoxyribose degradation (%) |
| --- | --- |
| O=C(NCCc1ccccc1)c1c(O)cccc1O [Rip-E, 2,6-Dihydroxy-N-phenethylbenzamide] | 53.4 ± 1.79 ^a % |

same assay, conditions: 25 μg/mL

| Compound | 2-Deoxyribose degradation (%) |
| --- | --- |
| O=C(NCCc1ccccc1)c1c(O)cccc1O [Rip-E, 2,6-Dihydroxy-N-phenethylbenzamide] | 51.4 ± 1.47 ^a % |

same assay, conditions: 100 μg/mL

| Compound | 2-Deoxyribose degradation (%) |
| --- | --- |
| O=C(NCCc1ccccc1)c1c(O)cccc1O [Rip-E, 2,6-Dihydroxy-N-phenethylbenzamide] | 49.4 ± 0.85 ^a % |

same assay, conditions: 140 μg/mL (standard antioxidant)

| Compound | 2-Deoxyribose degradation (%) |
| --- | --- |
| Cc1c(C)c2c(c(C)c1O)CCC(C)(C(=O)O)O2 (centres unmarked) [Trolox, reference compound] | 21.4 ± 0.95 ^a % |

same assay, conditions: hydroxyl radical content

| Compound | IC50 OH radical |
| --- | --- |
| O=C(NCCc1ccccc1)c1c(O)cccc1O [Rip-E, 2,6-Dihydroxy-N-phenethylbenzamide] | 1.054 µg/mL (≈ 4.1 µM) |

test system: not listed separately; assay: Antioxidant potential against the formation of TBARS (AAPH-induced lipid peroxidation of egg yolk homogenate); settings: 1 μg/mL
Protocol: as §1
The TBARS assay was employed to quantify lipid peroxidation and an adapted TBARS method was used to measure the antioxidant capacity of the riparins (Rip-A, -B, -C, -D, -E and -F) using egg yolk homogenate as lipid rich substrate. Egg yolk was homogenized (1% w/v) in 20 mM phosphate buffer (pH 7.4), 1 mL of homogenate was sonicated and then homogenized with 0.1 mL of the samples at concentrations of 1, 5, 10, 25 and 100 µg/mL. Lipid peroxidation was induced by the addition of 0.1 mL of 2,2'-azobis(2-methylpropionamidine) dihydrochloride solution (AAPH; 0.12 M). Control was evaluated with only the vehicle. Reactions were carried out for 15 minutes at 37 °C. After cooling, samples (0.5 mL) were centrifuged with 0.5 mL of trichloroacetic acid (15%) at 1,200 ×g for 10 min. An aliquot of 0.5 mL from supernatant was mixed with 0.5 mL TBA (0.67%) and heated at 95 °C for 30 min. After cooling, sample absorbance was measured using a spectrophotometer at 532 nm. The results were expressed as percentage of TBARS formed by AAPH alone (induced control).

| Compound | TBARS levels (% AAPH) |
| --- | --- |
| O=C(NCCc1ccccc1)c1c(O)cccc1O [Rip-E, 2,6-Dihydroxy-N-phenethylbenzamide] | 41.4 ± 0.69 ^a % |

same assay, conditions: 5 μg/mL

| Compound | TBARS levels (% AAPH) |
| --- | --- |
| O=C(NCCc1ccccc1)c1c(O)cccc1O [Rip-E, 2,6-Dihydroxy-N-phenethylbenzamide] | 38.6 ± 0.63 ^a % |

same assay, conditions: 10 μg/mL

| Compound | TBARS levels (% AAPH) |
| --- | --- |
| O=C(NCCc1ccccc1)c1c(O)cccc1O [Rip-E, 2,6-Dihydroxy-N-phenethylbenzamide] | 35.5 ± 0.37 ^a % |

same assay, conditions: 25 μg/mL

| Compound | TBARS levels (% AAPH) |
| --- | --- |
| O=C(NCCc1ccccc1)c1c(O)cccc1O [Rip-E, 2,6-Dihydroxy-N-phenethylbenzamide] | 31.3 ± 0.76 ^a % |

same assay, conditions: 100 μg/mL

| Compound | TBARS levels (% AAPH) |
| --- | --- |
| O=C(NCCc1ccccc1)c1c(O)cccc1O [Rip-E, 2,6-Dihydroxy-N-phenethylbenzamide] | 28.2 ± 0.39 ^a % |

same assay, conditions: 140 μg/mL (standard antioxidant)

| Compound | TBARS levels (% AAPH) |
| --- | --- |
| Cc1c(C)c2c(c(C)c1O)CCC(C)(C(=O)O)O2 (centres unmarked) [Trolox, reference compound] | 55.3 ± 6.48 ^a % |

same assay, conditions: TBARS production

| Compound | IC50 TBARS |
| --- | --- |
| O=C(NCCc1ccccc1)c1c(O)cccc1O [Rip-E, 2,6-Dihydroxy-N-phenethylbenzamide] | 0.7821 µg/mL (≈ 3.04 µM) |

test system: HL-60 (pro-myelocytic leukemia); assay: Cytotoxicity against tumor cell lines (MTT); type: cell-based; settings: Homo sapiens, 72 h, 95% confidence interval in brackets, read-out: IC50 values and confidence intervals, HL-60
Protocol: (§2) Cells were maintained at 37 °C with 5% CO2 in RPMI 1640 (Himedia^TM, Mumbai, India) or DMEM medium (Gibco^TM, Grand Island, NY, USA) supplemented with 2 mM glutamine, 100 U/mL penicillin, 100 μg/mL streptomycin. The antiproliferative activities of riparins were evaluated in the following human cancer cells lineage: HL-60 (pro-myelocytic leukemia), NCIH-292 (lung carcinoma), and HEP-2 (laryngeal carcinoma) obtained from the Rio de Janeiro Cell Bank (RJ-Brazil). For all experiments, 100 µL of tumor cells were plated in 96-well plates (6 × 10^4 cells/cm^2 for adherent cells or 9 × 10^4 cells/cm^2 for leukemia). Tested compounds (0.1–25 μg/mL) dissolved in 1% DMSO (100 µL) were added to each well and incubated for 72 h. Control groups received the same amount of DMSO. After 69 h of treatment, 25 μL of MTT (5 mg/mL) were added. Three hours later, the MTT formazan product was dissolved in 100 μL of DMSO, and absorbance was measured at 595 nm using a multiplate reader (Thermo Plate®, TP Reader, São Paulo, SP, Brasil).
(§3) The obtained data were evaluated by one-way analysis of variance (ANOVA) followed by a Student Newman Keuls post hoc test. The data concerning release percentage of cytoplasmatic enzyme lactate dehydrogenase (LDH) were reported by mean ± standard deviation and evaluated by one-way analysis of variance (ANOVA) followed by a Tukey post hoc test. In all cases differences were considered significant if p < 0.05, the means and respective standard errors were analyzed in the Graph Pad Prism version 5.0 for Windows software (GraphPad Software Incorporated, San Diego, CA, USA).

| Compound | IC50 |
| --- | --- |
| O=C(NCCc1ccccc1)c1c(O)cccc1O [Rip-E, 2,6-Dihydroxy-N-phenethylbenzamide] | 1.9 µg/mL (≈ 7.38 µM) |

test system: NCIH-292 (lung carcinoma); assay: Cytotoxicity against tumor cell lines (MTT); type: cell-based; settings: Homo sapiens, NCI-H292, 72 h, 95% confidence interval in brackets, read-out: IC50 values and confidence intervals, NCIH-292
Protocol: as §2, §3

| Compound | IC50 |
| --- | --- |
| O=C(NCCc1ccccc1)c1c(O)cccc1O [Rip-E, 2,6-Dihydroxy-N-phenethylbenzamide] | > 25 µg/mL |

test system: murine peritoneal macrophages RAW 264.7; assay: Cytotoxicity assay on RAW 264.7 (LDH release); type: cell-based; settings: not given
Protocol: Murine peritoneal macrophages of the cell line RAW 264.7 were obtained from the American Type Culture Collection (ATCC, Rockville, MD, USA), and cultured at 37 °C with CO2 at 5% in DMEM-F12 supplemented with 10% fetal bovine serum (FBS; Hyclone^TM, Logan, UT, USA) and gentamicin (50 μg/mL). RAW 264.7 cells (5 × 10^5 cells/mL) were cultured and incubated for 24 h with the riparins A, B, C, D, E and F at the final concentration of 25 µg/mL […]. The cytotoxicity assay was performed by LDH assay. The release of LDH (cytoplasmic lactate dehydrogenase enzyme) was determined using 50 μL of culture supernatant with 100 μL of LDH substrate plus and 5 μL ferric alum (5 mg/mL), at 37 °C for 3 min. Then, 100 μL of the NAD solution and phenazine methosulphate were added to the mixture, maintaining the temperature at 37 °C for 5 min (Labrax Commercial Kit, Clontech, Palo Alto, CA, USA). LDH is an oxidoreductase which catalyzes the interconversion of lactate and pyruvate and, for being a stable cytosolic enzyme, after damage to cell membrane it is released in the cellular environment and because of this LDH is an indirect indicator of cytotoxicity. LDH concentration was determined by colorimetry at 492 nm. The specific release of LDH was calculated as percentage of the controls (not treated cells as negative control and cells treated with 1%Triton X-100 as positive control).
as §3

| Compound | LDH % Release |
| --- | --- |
| Triton X-100 [Triton X-100 1%, reference compound] | 99.96% |

same assay, conditions: 25 µg/mL, RAW 264.7

| Compound | LDH % Release |
| --- | --- |
| O=C(NCCc1ccccc1)c1c(O)cccc1O [Rip-E, 2,6-Dihydroxy-N-phenethylbenzamide] | 96.91% |

same assay, conditions: 25 µg/mL, RAW 264.7; listed as riparin E

| Compound | LDH % Release |
| --- | --- |
| O=C(NCCc1ccccc1)c1c(O)cccc1O [Rip-E, 2,6-Dihydroxy-N-phenethylbenzamide] | greater than 80% |

test system: tumor cells lines (leukemia and lung and laryngeal carcinoma); assay: Cytotoxicity on tumor cell lines, summary statements over the lines (MTT); type: cell-based; settings: Homo sapiens; leukemia and lung and laryngeal carcinoma; read-out: IC50 values on neoplastic cells (range over cell lines)
Protocol: as §1, §2

| Compound | IC50 |
| --- | --- |
| O=C(NCCc1ccccc1)c1c(O)cccc1O [Rip-E, 2,6-Dihydroxy-N-phenethylbenzamide] | 1.9 to 11.4 µg/mL (≈ 7.38 to 44.3 µM) |

same assay, conditions: Homo sapiens; tumor cells lines; cytotoxicity samples tested at 25 µg/mL; read-out: cell growth inhibition rates

| Compound | inhibition at 25 µg/mL |
| --- | --- |
| O=C(NCCc1ccccc1)c1c(O)cccc1O [Rip-E, 2,6-Dihydroxy-N-phenethylbenzamide] | > 70% |

test system: not given; assay: not given; settings: not given

| Compound | melting point |
| --- | --- |
| O=C(NCCc1ccccc1)c1c(O)cccc1O [Rip-E, 2,6-Dihydroxy-N-phenethylbenzamide] | 155 °C |
